Test results published in US20040171544A1, “Trefoil domain-containing polypeptides and uses thereof” (priority 2001, published 2004).
Where no end group is shown, it is not given here.

Tests used:
IEC-6 cells = test: in vitro IEC-6 wounding/cell migration assay; type: cell-based; conditions: for relative activity (wound repair, IEC-6 cells across the wound border): 0.1-1.0 mg/ml dimer, 19 hours, serum-deprived media with or without hCGP 2 mg/ml
Protocol: Biological activity of recombinant trefoil peptide fragments was measured using an in vitro wound/migration assay as described by Dignass et al. (J. Clin. Invest. 94:376-383 (1994)). Briefly, primary intestinal epithelial, IEC-6 cells (at passage 17) were grown in sterile Dulbecco's Modified Eagle Medium (DMEM) supplemented with 5% FCS (v/v), 5 μg/μl insulin, and 10 mM penicillin/streptomycin/L-glutamine (PSG). Cells were grown to confluence in a humidified chamber at 37° C. and 5% CO2.
Prior to performing biopotency assays, the media was removed, washed 2× with 0.1% FCS/DMEM and serum-starved overnight in 0.1% FCS/DMEM at 37° C. and 5% CO2. Two simulated wounds per well were made by scoring the cells with a razor blade. The cells were then washed once with 0.1%FCS/DMEM. Samples of hITF15-73 and its fragments and isoforms were produced in Pichia pastoris and purified as described above. The TDCP mixture was then added to separate plates at a concentration of 100 μg per milliliter of 0.1% FCS/DMEM per fragment. A positive control using the known mitogen, transforming growth factor-β (TGF-β), was included at 20 ng/mL media and a negative control of just 0.1% FCS/DMEM were incorporated for later analysis. Cells were incubated for 24 hours at 37° C. At 24 hours post incubation, cells were washed with ice-cold PBS and fixed in cold MeOH. Each plate was then assayed for motility by counting the number of cells crossing the wound edge.
Biological activity was tested using the in vitro IEC-6 wounding/cell migration assay describe above with the following modifications. IEC-6 cells were cultured to confluence in 24-well multiwell plates and were wounded once with a pipette to yield a 4-5 mm×1 cm wound in each well. Cells were washed and maintained in serum-deprived media, with or without human colonic glycoprotein (hCGP; 2 mg/ml), in the presence of 0.1-1.0 mg/ml of one of the three recombinant hITF dimers identified above for 19 hours. Bovine serum albumin (0.1-1.0 mg/ml) was added instead of an hITF dimer. Wound repair was determined by counting the number of IEC-6 cells across the wound border using a 100× photomicrograph (inverted Nikon Diaphor TMS, Nikon N6006 camera).

[1] = isoelectric point (pI) of ITF fragments; type: physicochemical
Text: We have observed that production of trefoil peptides in Pichia pastoris leads to post-translational events which include proteolytic cleavage and dipeptide addition. […] Our studies have shown that longer fermentation times results in increased hITF21-72 yields. We also observed that the optimal yield of the ITF21-72 and ITF21-73 occurs at a pH of ˜5; whereas the optimal yield of the […] and […] occurs at pH 6.0-6.5. As the pI of ITF15-73 and ITF21-72 is 5.1 and 6.9 respectively, separation of the two products can be achieved by ion-exchange chromatography.

[2] = stated as well known; cited from earlier work

Molecule | relative activity (wound repair, IEC-6 cells across the wound border) (IEC-6 cells) [%] | also measured
EA-hITF15-73 homodimer: dimer of EA-hITF15-73, 13547 Da (EAEEYVGLSANQCAVPAKDRVDCGYPHVTPKECNNRGCCFDSRIPGVPWCFKPLQEAECTF; also: homodimer; UniProt Q07654 22-80, looked up, fragment) | 85.3 | 
hITF15-73 homodimer: recombinant hITF15-73 dimer, 13146 Da (EEYVGLSANQCAVPAKDRVDCGYPHVTPKECNNRGCCFDSRIPGVPWCFKPLQEAECTF; cysteine pairing not given here; also: homodimer; UniProt Q07654 22-80, looked up, fragment) | 100 | 
hITF15-73/EA-hITF15-73 heterodimer: dimer of hITF15-73 and EA-hITF15-73, 13347 Da (EEYVGLSANQCAVPAKDRVDCGYPHVTPKECNNRGCCFDSRIPGVPWCFKPLQEAECTF; cysteine pairing not given here; also: heterodimer of hITF15-73 and EA-hITF15-73, one chain has N-terminal Glu-Ala extension; UniProt Q07654 22-80, looked up, fragment) | 95.6 | 
hITF15-73: recombinant trefoil peptide fragment, amino acid residues 15-73 of human intestinal trefoil factor, produced in Pichia pastoris (EEYVGLSANQCAVPAKDRVDCGYPHVTPKECNNRGCCFDSRIPGVPWCFKPLQEAECTF; UniProt Q07654 22-80, looked up, fragment) |  | increase in IEC-6 cells migrating over the wound edge, compared to BSA control (IEC-6 cells; 1 mg/ml, 19 hour incubation, versus 1 mg/ml BSA (FIG. 12)): ~3 fold; pI [1]: 5.1
hITF: human intestinal trefoil factor (hITF; also known as TFF3) (protein, listed as Homo sapiens) MLGLVLALLSSSSAEEYVGLSANQCAVPAKDRVDCGYPHVTPKECNNRGCCFDSRIPGVPWCFKPLQEAECTF |  | stability at stomach pH [2]: stable
